Laboratory results taken from patent US5198424A, “Functionally active selectin-derived peptides” (Board of Regents of the University of Oklahoma, priority 1992, dated 1993).
Read-outs that look alike come from different tables or passages of the source. Ends that are not written are not given here.

How the values were obtained:
[1] = target: T1, GMP-140 (Homo sapiens, UniProt P16109); experiment: ELISA of binding of biotinylated monoclonal antibodies G1, G2, G3 to immobilized GMP-140 with soluble peptide; parameters: from tissue; host or cells: outdated human platelet packs (platelet lysate); conditions: peptide 1.5 mM; for remaining activity at 1500 µM: 2 h
T1 sequence (P16109 42-830): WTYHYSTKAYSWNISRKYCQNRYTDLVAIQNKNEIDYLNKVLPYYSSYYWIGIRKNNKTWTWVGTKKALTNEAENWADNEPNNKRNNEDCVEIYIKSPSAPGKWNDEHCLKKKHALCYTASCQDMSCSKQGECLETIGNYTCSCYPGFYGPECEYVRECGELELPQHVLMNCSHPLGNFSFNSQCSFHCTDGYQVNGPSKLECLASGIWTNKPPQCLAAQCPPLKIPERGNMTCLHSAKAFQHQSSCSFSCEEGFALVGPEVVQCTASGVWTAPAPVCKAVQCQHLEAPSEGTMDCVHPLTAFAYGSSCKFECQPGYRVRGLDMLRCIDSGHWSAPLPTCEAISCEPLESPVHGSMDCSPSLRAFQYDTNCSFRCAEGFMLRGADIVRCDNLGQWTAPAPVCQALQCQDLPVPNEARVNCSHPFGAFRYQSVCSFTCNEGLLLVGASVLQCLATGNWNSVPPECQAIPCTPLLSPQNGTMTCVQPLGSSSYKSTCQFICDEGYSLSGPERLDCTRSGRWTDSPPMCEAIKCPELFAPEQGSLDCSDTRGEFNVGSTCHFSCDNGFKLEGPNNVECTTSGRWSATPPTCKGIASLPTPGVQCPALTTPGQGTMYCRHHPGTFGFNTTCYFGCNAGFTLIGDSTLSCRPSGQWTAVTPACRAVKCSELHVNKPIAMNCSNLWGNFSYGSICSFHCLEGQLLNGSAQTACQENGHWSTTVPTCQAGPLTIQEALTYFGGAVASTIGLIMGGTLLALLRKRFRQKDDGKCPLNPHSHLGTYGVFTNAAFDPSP
Procedure: Based on competitive ELISAs with the purified protein, G1, G2, and G3 each recognize distinct or only partially overlapping epitopes. 1.5 mM peptide was added to biotinylated mAb at a concentration of 2.5 micrograms/ml, which were then added to the wells containing GMP-140, as described in example 1. Binding was measured by an ELISA with an avidin detection system.
The monoclonal antibodies were biotinylated as follows: to 0.5 ml of purified IgG antibody (1 mg/ml in PBS, pH 7.4) was added 50 μl of 3.2 mM N-hydroxysuccinimide biotin in dimethyl sulfoxide and 50 μl of 1 M NaHCO3. After a 2 hour incubation at room temperature in the dark, the reaction was stopped with 50 μl of 1 M NH4 Cl. The biotinylated antibody was then separated from other components by gel filtration on a PD-10 column equilibrated in PBS. The ELISA was performed as follows; all steps were performed at room temperature.
Biotinylated antibody (2.5 μg/ml) with or without 1.5 mM peptide was incubated with wells coated with GMP-140 as described in example 1. After a 2 hour incubation, the antibody was removed, the wells were washed, and 0.1 ml of horseradish peroxidase-conjugated stepavidin (Pierce), diluted 1:1000 in HBSS/HSA, was added for 30 min. The wells were then washed and 0.1 ml of peroxidase substrate (Pierce) was added for 15 min. The color reaction was read at 405 nm.

[2] = target: T1, GMP-140; experiment: Neutrophil adhesion to purified GMP-140 immobilized on plastic wells (myeloperoxidase readout); format: cell-based; parameters: from tissue; host or cells: outdated human platelet packs (platelet lysate); conditions: for % Bound (neutrophils bound to immobilized GMP-140 in the presence of GMP-140-derived peptide): peptide 1.5 mM, cells bound with control C-terminal peptide 761-777 normalized to 100%
Source text: Peptides were screened for their ability to inhibit neutrophil adhesion to purified GMP-140 immobilized on plastic wells, using the assay described by Geng, et al., Nature 343, 757-760 (1990).
Human neutrophils are isolated from heparinized whole blood by density gradient centrifugation on Mono-Poly resolving media, Flow Laboratories. Neutrophil suspensions are greater than 98% pure and greater than 95% viable by trypan blue exclusion. For adhesion assays, neutrophils are suspended at a concentration of 2×10^6 cells/ml in Hanks' balanced salt solution containing 1.26 mM Ca^2+ and 0.81 mM Mg^2+ (HBSS, Gibco) with 5 mg/ml human serum albumin (HBSS/HSA). Adhesion assays are conducted in triplicate in 96-well microtiter plates, Corning, incubated at 4° C. overnight with 50 microliters of various protein solutions.
GMP-140 is plated at 5 micrograms/ml and the control proteins: human serum albumin (Alb), platelet glycoprotein IIb/IIIa (IIb), von Willebrand factor (vWF), fibrinogen (FIB), thrombomodulin (TM), gelatin (GEL) or human serum (HS), are added at 50 micrograms/ml. All wells are blocked for 2 h at 22° C. with 300 microliters HBSS containing 10 mg/ml HSA, then washed three times with HBSS containing 0.1% Tween-20 and once with HBSS. Cells (2×10^5 per well were added to the wells and incubated at 22° C. for 20 min. The wells were then filled with HBSS/HSA, sealed with acetate tape (Dynatech), and centrifuged inverted at 150 g for 5 min. After discarding nonadherent cells and supernates, the contents of each well are solubilized with 200 microliters 0.5% hexadecyltrimethylammonium bromide, Sigma, in 50 mM potassium phosphate, pH 6.0, and assayed for myeloperoxidase activity, Ley, et al., Blood 73, 1324-1330 (1989). The number of cells bound was derived from a standard curve of myeloperoxidase activity versus numbers of cells. Under all assay conditions, the cells released less than 5% of total myeloperoxidase and lactate dehydrogenase. Results are presented in Table I. 100% adhesion is that seen in the presence of the C-terminal peptide (amino acid residues 761-777 of GMP-140) as a negative control; this value is the same as controls in which neither peptide nor antibody is added to the cells. Inhibition is read as a lower percent adhesion, so that a value of 5% mean that 95% of the specific adhesion was inhibited.
Peptides from the lectin-like domain of GMP-140 were assayed for their ability to inhibit adhesion of neutrophils to immobilized GMP-140 in the assay described in example 1. Concentrations tested ranged from 0.1 mM to 1.5 mM.

[3] = mAb G1 2.5 micrograms/ml, read-out: % Binding of Biotinylated MAbs G1
[4] = mAb G2 2.5 micrograms/ml, read-out: % Binding of Biotinylated MAbs G2
[5] = mAb G3 2.5 micrograms/ml, read-out: % Binding of Biotinylated MAbs G3

Substance	remaining activity at 1500 µM [1, 3]	remaining activity at 1500 µM [1, 4]	remaining activity at 1500 µM [1, 5]	% Bound (neutrophils bound to immobilized GMP-140 in the presence of GMP-140-derived peptide) [2]	other results
LKKKHAL [LECTIN 110-116]	98%	100%	108%		
RKRFRQK [TRANSMEMBRANE 755-761, reference compound]	100%	119%	104%		
66-78: GMP-140 lectin domain amino acids 66-78, overlapping peptide; by b139 alignment KKALTENAENWAD				6%	inhibition of neutrophil adhesion to immobilized GMP-140 (in words) [2]: inhibited adhesion; inhibition of neutrophil binding to immobilized GMP-140, dependence on concentration ([2]; FIG. 3, 0.1 mM to 1.5 mM peptide): inhibited binding in a dose-dependent manner; inhibition of neutrophil adhesion to immobilized GMP-140 (in words) ([2]; listed as 66 to 78): very active
YTDLVAIQ [23-30]				7%	
AENWADNEPNNKRNNED [73-89]				22%	% Binding of Biotinylated MAbs G1 ([1]; mAb G1 2.5 micrograms/ml): 95%; % Binding of Biotinylated MAbs G2 ([1]; mAb G2 2.5 micrograms/ml): 99%; % Binding of Biotinylated MAbs G3 ([1]; mAb G3 2.5 micrograms/ml): 94%
NRYTDLV [21-27]				65%	
RKNNK [54-58]				108%	
SKQGE [EGF 128-132]	107%	92%	104%		
VAIQNKNE [27-34]				91%	
NRYTDLVAIQ [21-30]				20%	
RKNNKTW [54-60]				63%	
YPGFYGPECEYVRE [EGF 145-158]	94%	92%	108%		
NRYTDLVAI [21-29]				71%	
RKNNKTWTWV [54-63]				13%	
CQNRYTDL [19-26]				92%	
NRYTDLVA [21-28]				85%	
VEIYIKSPSAPGKWNDEH [LECTIN 91-108]	97%	93%	96%		
CSDTRGEFNVGST [REPEATS 544-556, reference compound]	107%	96%	111%		
elastase [reference compound]					adhesion of neutrophils to immobilized GMP-140 abolished ([2]; neutrophils treated with the protease): Greater than 70%
YTDLVAIQNKNE [23-34]				30%	
